# Measurements from publication PMC8733726, “Dioctanoyl Ultrashort Tetrabasic β-Peptides Sensitize Multidrug-Resistant Gram-Negative Bacteria to Novobiocin and Rifampicin” (Frontiers in Microbiology, 2021).
# Read-outs that look alike come from different tables or passages of the source.
# Experiments:
# [1] = in vitro; format: cell-based; details: human
# Experimental: The degree of hemolysis induced by dUSTBβPs was determined by the amount of hemoglobin released from human erythrocytes upon incubation. Fresh human blood supplied by a commercial vendor was obtained from normal healthy volunteers following informed consent. The agent of interest was serially diluted in vehicle consisting of phosphate-buffered saline (PBS), saline, 5% glucose, or equivalents. The samples were incubated with gentle mixing at 37°C for 45 min and were subsequently centrifuged. The supernatant (plasma layer) was removed and centrifuged once more to completely pellet the cells. The plasma layer was diluted with Drabkin’s reagent and analyzed at a wavelength of 540 nm. Experiments were conducted in triplicates, and a calibration curve prepared by diluting blood (after addition of vehicle) was used to quantitate heme release. The vehicle or Triton X-100 were used as negative or positive controls, respectively.
# [2] = system: P. aeruginosa PAO1; format: cell-based, Pseudomonas aeruginosa; details: PAO1, 18 h
# Experimental: (§1) The in vitro antibacterial activities of dUSTBβPs were evaluated using microbroth dilution susceptibility test, in accordance with the Clinical and Laboratory Standards Institute (CLSI) guidelines ([Clinical and Laboratory Standards Institute, 2019]). Overnight-grown bacterial culture diluted in saline to 0.5 McFarland turbidity was successively diluted 1:50 in Mueller-Hinton broth (MHB) to achieve a final concentration of 5 × 10^5 colony forming units (CFU)/mL for inoculation. The agents were serially diluted 2-fold in MHB on a 96-well plate; mixed with bacterial inoculum of equal volumes, and incubated at 37°C for 18 h. Antibacterial activity was determined by the minimum inhibitory concentration (MIC), which is the lowest concentration of agent required for inhibition of visible bacterial growth in the form of turbidity. Confirmation of turbidity was done using an EMax Plus microplate reader (Molecular Devices, United States) at a wavelength of 590 nm. Wells comprising MHB alone or MHB inoculated with bacteria were used as negative or positive controls, respectively.
# [3] = system: A. baumannii ATCC 17978; format: cell-based, Acinetobacter baumannii; details: ATCC 17978, 18 h
# Experimental: as §1
# [4] = system: E. coli ATCC 25922; format: cell-based, Escherichia coli; details: ATCC 25922, 18 h
# Experimental: as §1
# [5] = system: wild-type E. coli ATCC 25922; assay: microbe, parasite or virus in culture; format: cell-based, Escherichia coli
# Outline: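 2-fold antibiotic × adjuvant checkerboard in MHB; inoculum 5 × 10^5 CFU/mL; 37°C, 18 h; OD590 read. FICI = FIC antibiotic + FIC adjuvant; ≤ 0.5 synergistic, 0.5 < x ≤ 4 additive, >4 antagonistic.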
# [6] = system: MDR clinical isolates of A. baumannii; format: cell-based, Acinetobacter baumannii; details: for MICantibiotic: antibiotic alone
# Experimental: (§2) The adjuvant activities of dUSTBβPs were evaluated using checkerboard assay as previously described ([Berry et al., 2019]). Overnight-grown bacterial culture diluted in saline to 0.5 McFarland turbidity was successively diluted 1:50 in MHB to achieve a final concentration of 5 × 10^5 CFU/mL for inoculation. The antibiotic and adjuvant were serially diluted 2-fold along the x-axis and y-axis, respectively, resulting in varying concentrations of both agents in each well. Subsequently, the 96-well plate was incubated with equal volumes of bacterial inoculum at 37°C for 18 h. Confirmation of turbidity was done using an EMax Plus microplate reader (Molecular Devices, United States) at a wavelength of 590 nm. Wells comprising MHB alone or in the presence of bacterial cells were used as negative or positive controls, respectively. Fractional inhibitory concentration index (FICI) is determined by adding the FICs of both antibiotic and adjuvant. The FIC of the antibiotic is calculated by dividing the MIC of the antibiotic in the presence of the adjuvant by the MIC of the antibiotic alone. Similarly, the FIC of the adjuvant is calculated by dividing the MIC of the adjuvant in the presence of the antibiotic by the MIC of the adjuvant alone. FICI ≤ 0.5, 0.5 < x ≤ 4, and >4 were deemed synergistic, additive, and antagonistic, respectively ([Meletiadis et al., 2010]).
# [7] = system: MDR K. pneumoniae; format: cell-based, Klebsiella pneumoniae; details: for MICantibiotic: antibiotic alone
# Experimental: as §2
# [8] = system: A. baumannii ATCC 17978; format: cell-based, Acinetobacter baumannii; details: not told
# Experimental: (§3) The ability of dUSTBβP 3 to permeabilize the OM of Acinetobacter baumannii ATCC 17978 and Escherichia coli ATCC 25922 was assessed using 1-N-phenylnaphthylamine (NPN) as previously described with minor modifications ([Yang et al., 2017]; [Akhoundsadegh et al., 2019]). Overnight grown culture was subcultured (1 in 100) in fresh LB broth and grown to a mid-logarithmic phase (OD600 = 0.4–0.6). […] NPN (10 μM final concentration) was added to a black 96-well plate containing the cell culture and incubated in 5 mM HEPES (pH 7.2) supplemented with 5 mM glucose and 5 μM carbonyl cyanide 3-chlorophenylhydrazone at room temperature for 30 min in darkness. Varying concentrations of compound were added onto the suspension, and the resulting change in NPN fluorescence was measured continuously (every 30 s) on a SpectraMax M2 microplate reader (Molecular Devices, United States) at an excitation wavelength of 350 nm and an emission wavelength of 420 nm. Cells with NPN and the OM permeabilizer PMBN served as a positive control, while cells with NPN alone served as a negative control. Three replicates were conducted, and the data were corrected for any background fluorescence.
# [9] = system: E. coli ATCC 25922; format: cell-based, Escherichia coli; details: not told
# Experimental: as §3
# [10] = in vitro; details: human, plasma
# Experimental: Stability of dUSTBβP 3 was evaluated in human plasma. […] The supernatant was analyzed by HPLC-tandem mass spectrometry using selected reaction monitoring. The % compound remaining was determined by comparing peak areas at different time points to time zero. Assuming first-order kinetics, the half-life was extrapolated from the slope of the initial linear range of the logarithmic curve of compound remaining over time. Experiments were performed in duplicates, and the reference compounds include propantheline and propoxycaine.
# [11] = in vitro; format: cell-based; details: human; remark: listed apart in the source
# Experimental: (§4) Cell viability assay was performed essentially as previously described ([[…] et al., 2019]). […] The cells were detached with trypsin and equal numbers of cells (8,000 cells in 50 μL) were dispersed into five rows of each column in 96-well plate; the remaining three rows of each column, designated as blanks, received 50 μL of the media without cells. After 24 h incubation, aliquots of 50 μL of dUSTBβP 3 at varying concentrations were added to each well and incubated for 48 h. […] Values from the wells without cells (blank wells) were subtracted from the corresponding sample wells and cell viability values of the treated samples relative to the vehicle controls set to 100% was determined. […] The results represent the mean ± SD of two independent experiments with five samples per experiment. […] Colistin was used as a negative control and doxorubicin, an anticancer drug, was used as a positive control.
# [12] = Cell viability assay; format: cell-based; details: human
# Experimental: as §4
# [13] = system: wild-type P. aeruginosa PAO1; assay: microbe, parasite or virus in culture; format: cell-based, Pseudomonas aeruginosa; details: PAO1
# Outline: (§5)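 Checkerboard in MHB with 5 × 10^5 CFU/mL inoculum, antibiotic and adjuvant each serially 2-fold diluted on crossed axes. Growth read as turbidity at 590 nm; FICI is the sum of each agent's MIC in combination divided by its MIC alone.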
# [14] = system: wild-type A. baumannii ATCC 17978; assay: Checkerboard assay; format: cell-based, Acinetobacter baumannii; details: ATCC 17978
# Outline: as §5
# [15] = system: MDR clinical isolates of P. aeruginosa; assay: Checkerboard assay, MDR clinical isolates; format: cell-based, Pseudomonas aeruginosa; details: antibiotic alone
# Experimental: as §2
# [16] = system: MDR E. coli; format: cell-based, Escherichia coli; details: antibiotic alone
# Experimental: as §2
# [17] = system: MDR E. cloacae; assay: Checkerboard assay, MDR clinical isolates; format: cell-based, Enterobacter cloacae; details: antibiotic alone
# Experimental: as §2
# [18] = system: MDR A. baumannii 110193; assay: Time-kill assay; format: cell-based, Acinetobacter baumannii; details: 32 μg/mL novobiocin or 0.5 μg/mL rifampicin alone
# Experimental: (§6) Overnight-grown bacterial culture diluted in PBS to 0.5 McFarland turbidity was successively diluted 1:50 in lysogeny broth (LB). Cell cultures in the presence of dUSTBβP 3, novobiocin, or rifampicin, or combinations of adjuvant and antibiotic were incubated at 37°C. At designated intervals, 100 μL aliquots acquired from each culture tube were serially diluted in PBS and plated on LB agar plates.
# [19] = system: wild-type A. baumannii ATCC 17978; assay: Time-kill assay; format: cell-based, Acinetobacter baumannii; details: 32 μg/mL novobiocin or 0.5 μg/mL rifampicin alone
# Experimental: as §6
# [20] = ref Chen and Lu, 2020; cited from earlier work
# [21] = antibiotic with dUSTBβP 3 at 8 μg/mL
compound,measurement,setting,value
CCCCCCCC(=O)NC(CCCNC(=N)N)CC(=O)NCCCN(CCCNC(=O)CC(CCCNC(=N)N)NC(=O)CCCCCCC)CC(=O)NC(CCCNC(=N)N)CC(N)=O (centres unmarked) [dUSTBβP 3],"hemolysis at 45 min, 1.5625 µM",[1],3.23 ± 0.08%
same,"hemolysis at 45 min, 3.125 µM",[1],3.32 ± 0.16%
same,"hemolysis at 45 min, 6.25 µM",[1],3.18 ± 0.05%
same,"hemolysis at 45 min, 12.5 µM",[1],3.28 ± 0.12%
same,"hemolysis at 45 min, 25 µM",[1],3.35 ± 0.09%
same,"hemolysis at 45 min, 50 µM",[1],3.43 ± 0.49%
same,"hemolysis at 45 min, 100 µM",[1],4.17 ± 1.29%
same,"hemolysis at 45 min, 200 µM",[1],4.59 ± 2.42%
same,MIC,[2],128 µg/mL
same,MIC,[3],>128 µg/mL
same,MIC,[4],128 µg/mL
same,FICI,"[5]; ATCC 25922, 18 h",0.064
same,MIC of compound alone,"[6]; MDR clinical isolates of, 18 h",16 µg/mL
same,FICI,"[7]; MDR, 18 h",< 0.156
same,"OM permeabilization, NPN fluorescence",[8],dose-dependently permeabilizes the OM
same,"OM permeabilization, NPN fluorescence",[9],dose-dependently permeabilizes the OM
same,half-life at 1 μM,[10],10.4 ± 3.7 h
same,"remaining at 2 h, 1 μM",[10],86.8 ± 3.7%
same,"viability at 48 h, 125 µM",[11],86.4 ± 8.7%
same,CC50 at 48 h,[12],101 µM
CO[C@H]1/C=C/O[C@@]2(C)Oc3c(C)c(O)c4c(O)c(c(/C=N/N5CCN(C)CC5)c(O)c4c3C2=O)NC(=O)/C(C)=C\C=C\[C@H](C)[C@H](O)[C@@H](C)[C@@H](O)[C@@H](C)[C@H](OC(C)=O)[C@@H]1C [Rifampicin],MICantibiotic,[13]; antibiotic alone,16 µg/mL
same,MICcombo,[13]; [21],0.25 µg/mL
same,MIC,"[13]; Pseudomonas aeruginosa, 18 h, antibiotic alone (Supplementary Table 7), read-out: MICantibiotic",16 µg/mL
same,MICantibiotic,[14]; antibiotic alone,2 µg/mL
same,MICcombo,[14]; [21],0.008 µg/mL
same,MIC,"[14]; Acinetobacter baumannii, ATCC17978, 18 h, antibiotic alone (Supplementary Table 7), read-out: MICantibiotic",2 µg/mL
same,MICantibiotic,"[5]; ATCC 25922, antibiotic alone",4 µg/mL
same,MICcombo,"[5]; ATCC 25922, antibiotic with dUSTBβP 3 at 8 μg/mL",0.008 µg/mL
same,MIC,"[5]; Escherichia coli, ATCC25922, 18 h, ATCC 25922, antibiotic alone (Supplementary Table 7), read-out: MICantibiotic",4 µg/mL
same,MICantibiotic,[15]; PA259-96196,16 µg/mL
same,MICantibiotic,[15]; PA262-101856,512 µg/mL
same,MICantibiotic,[15]; PA264-104354,16 µg/mL
same,MICantibiotic,[15]; PA91433,16 µg/mL
same,MICantibiotic,[15]; PA114228,16 µg/mL
same,MICantibiotic,[6]; 92247,2 µg/mL
same,MICantibiotic,[6]; 110193,1 µg/mL
same,MICantibiotic,[6]; AB027,1 µg/mL
same,MICantibiotic,[6]; AB031,1 µg/mL
same,MICantibiotic,[6]; LAC-4,0.5 µg/mL
same,MICantibiotic,[16]; 94393,8 µg/mL
same,MICantibiotic,[16]; 94474,8 µg/mL
same,MICantibiotic,[16]; 107115,32 µg/mL
same,MICantibiotic,[7]; 113250,32 µg/mL
same,MICantibiotic,[7]; 113254,8 µg/mL
same,MICantibiotic,[7]; 116381,> 256 µg/mL
same,MICantibiotic,"[7]; 116381, listed as rifampicin",512 µg/mL
same,MICantibiotic,[17]; 117029,8 µg/mL
same,MICantibiotic,[17]; 118564,8 µg/mL
same,MICantibiotic,[17]; 121187,2 µg/mL
same,Time-kill outcome,[18],Bacteriostatic
same,Time-kill outcome,[19],Bacteriostatic
CCCCCCCCCCNCCN[C@@]1(C)C[C@H](O[C@H]2[C@H](Oc3c4cc5cc3Oc3ccc(cc3Cl)[C@@H](O)[C@@H](NC(=O)[C@@H](CC(C)C)NC)C(=O)N[C@@H](CC(N)=O)C(=O)N[C@H]5C(=O)N[C@H]3C(=O)N[C@H](C(=O)N[C@H](C(=O)O)c5cc(O)c(CNCP(=O)(O)O)c(O)c5-c5cc3ccc5O)[C@H](O)c3ccc(c(Cl)c3)O4)O[C@H](CO)[C@@H](O)[C@@H]2O)O[C@@H](C)[C@H]1O [telavancin],In vivo elimination half-life,[20],8 h
polymyxin B nonapeptide [PMBN],"OM permeabilization, NPN fluorescence",[8],increased fluorescence of NPN
same,"OM permeabilization, NPN fluorescence",[9],increased fluorescence of NPN
COc1cccc2c1C(=O)c1c(O)c3c(c(O)c1C2=O)C[C@@](O)(C(=O)CO)C[C@@H]3O[C@H]1C[C@H](N)[C@H](O)[C@H](C)O1 [doxorubicin],"viability at 48 h, 1 µM",[11],16.6 ± 2.3%
same,CC50 at 48 h,[12],0.032 µM
